Laboratory results taken from patent publication EP2271935B1, “METHOD AND KIT FOR THE EX VIVO EVALUATION OF THE RESPONSE OF A TUMOR TO CONDITIONS TO BE TESTED” (Universität Leipzig, priority 2008, dated 2009).
Like-named read-outs stand apart in the source and are kept apart here.

Tested on: epithelial cell line KB (DSMZ ACC 136)
Assay: MTT assay of proliferation under varied riboflavin content and light exposure
Type: cell-based, human
Description: To address this question, three media, a) the RPMI 1640 without riboflavin and phenol red that is used in the method according to the invention and was manufactured according to our specifications by Biochrom, as well as two different RPMI 1640 charges purchased from Invitrogen which were each containing 532 nmol/L riboflavin, b) a phenol red-free (Gibco 11835), and c) a conventional RPMI 1640 (Gibco 21875) with 13.284 µmol/L phenol red. All media were supplemented with 2 mmol/L L-alanyl-1-glutamine as stabilized glutamine source (Biochrom K0302 Lot 0755 S) and the same amount of 10% (v/v) of heat-inactivated fetal calf serum (FCS) that was purchased from Invitrogen (Lot 41Q7554K) with a yield of 198 nmol/L riboflavin. […] These medium concentrations define the riboflavin concentrations in controls (see below).
In addition to the influences exerted by the different types of media alone, the riboflavin-dependent impact on the outcome of the docetaxel treatment was investigated. For this purpose 100 µl/well of docetaxel dilutions containing threefold the concentration indicated were added into the wells of microwell plates. The following seven docetaxel concentrations were tested: 19.38, 38.75, 77.5, 155, 310, 620, and 1,240 pmol/L.
To examine photoactivation-dependent riboflavin-mediated effects disturbing the outcome of ex-vivo chemoresponse-evaluation by conventional cell culture medium, and in particular in the absence of flavin-protecting experimental conditions, varying amounts of riboflavin were added. A stock solution of 200 µM (-)-riboflavin (CAS 83-68-5, Sigma R9504, FW=376.37 g/mol, purity >99%, cell culture tested) in phosphate buffered saline was diluted to adjust in each case the highest final concentration in culture (this means: after completion of the assay by addition of the other two components to the final assay volume of 300 µL) to exactly 10 µmol/L. Serial log10-dilutions were made from this concentration in each corresponding medium. These gave final concentrations in cell culture of 10.000, 1.018, 0.12, and 0.03 µmol/L in the case of medium a) (the medium according to the method of the invention), and concentrations of 10.000, 1.449, 0.594, and 0.508 µmol/L using media b) and c).
In general, each combination of riboflavin and docetaxel were tested in duplicate, and controls without additional riboflavin in quadruplicate for each experimental setting in the same 96-well plate. The experimental conditions were as follows: For each of the used media, two different plates were prepared simultaneously and either handled completely under flavin-protecting conditions (illumination only by sodium discharge lamps with an emission wavelength of 589 nm [i]), or in the same bench (Thermo MSC 12) with the installed light inside their working chamber switched on. The dilution of docetaxel and those of riboflavin in the particular medium were prepared for all four plates of each medium type prior to the other working steps under flavin-protecting conditions. Thus the administrations of these dilutions took about 20 min either under flavin-protecting conditions or illuminated conditions. After completed preparation of the plates that thereafter contained 200 µL of both diluted compounds, the plates were incubated 2 h in the incubator to allow for adjustment of the appropriate pH.
In between the stock culture of KB was harvested by trypsination of a 3-days stock culture (exponential growth phase). Stock cultures of KB cells always were grown without any antibiotic or antimycotic in phenol red- and riboflavin-free RPMI 1640 supplemented with 10% (v/v) FCS and were adapted to this medium for more than five passages. They were always handled at room temperature or warmer and were never exposed to light other than the light of a sodium discharge lamp with an emission wavelength of 589 nm for at least five passages. […]

In the case of `CC(=O)O[C@@]12CO[C@@H]1C[C@H](O)[C@@]1(C)C(=O)[C@H](O)C3=C(C)[C@@H](OC(=O)[C@H](O)[C@@H](NC(=O)OC(C)(C)C)c4ccccc4)C[C@@](O)([C@@H](OC(=O)c4ccccc4)[C@H]21)C3(C)C` [docetaxel], the IC50 (Homo sapiens, Epithelial cell, 0.5 h, Plate No. 06; Riboflavin 594 nmol/L; medium b), daylight 30 min, read-out: IC50 for docetaxel normalized to medium control of medium with same riboflavin content) is reported as 0.0838 nM, the IC50 (Homo sapiens, Epithelial cell, 0.5 h, Plate No. 07; Riboflavin 499 nmol/L; medium b) phenol red-free RPMI 1640, bench lighting <30 min, read-out: IC50 for docetaxel with reference to control with same riboflavin content) is reported as 0.169 nM and the IC50 (Homo sapiens, Epithelial cell, 0.5 h, Plate No. 07; Riboflavin 499 nmol/L; medium b), bench lighting <30 min, read-out: IC50 for docetaxel normalized to medium control of medium with same riboflavin content) is reported as 0.1 nM. For the same molecule, the IC50 (Homo sapiens, Epithelial cell, 0.5 h, Plate No. 07; Riboflavin 508 nmol/L; medium b) phenol red-free RPMI 1640, bench lighting <30 min, read-out: IC50 for docetaxel with reference to control with same riboflavin content) was 0.124 nM, the IC50 (Homo sapiens, Epithelial cell, 0.5 h, Plate No. 07; Riboflavin 508 nmol/L; medium b), bench lighting <30 min, read-out: IC50 for docetaxel normalized to medium control of medium with same riboflavin content) was 0.0735 nM and the IC50 (Homo sapiens, Epithelial cell, 0.5 h, Plate No. 07; Riboflavin 594 nmol/L; medium b) phenol red-free RPMI 1640, bench lighting <30 min, read-out: IC50 for docetaxel with reference to control with same riboflavin content) was 0.172 nM. The IC50 (Homo sapiens, Epithelial cell, 0.5 h, Plate No. 07; Riboflavin 594 nmol/L; medium b), bench lighting <30 min, read-out: IC50 for docetaxel normalized to medium control of medium with same riboflavin content) was 0.102 nM, the IC50 (Homo sapiens, Epithelial cell, 0.5 h, Plate No. 07; Riboflavin 1449 nmol/L; medium b) phenol red-free RPMI 1640, bench lighting <30 min, read-out: IC50 for docetaxel with reference to control with same riboflavin content) was 0.128 nM and the IC50 (Homo sapiens, Epithelial cell, 0.5 h, Plate No. 07; Riboflavin 1449 nmol/L; medium b), bench lighting <30 min, read-out: IC50 for docetaxel normalized to medium control of medium with same riboflavin content) was 0.0759 nM. The IC50 (Homo sapiens, Epithelial cell, 0.5 h, Plate No. 07; Riboflavin 10000 nmol/L; medium b) phenol red-free RPMI 1640, bench lighting <30 min, read-out: IC50 for docetaxel with reference to control with same riboflavin content) was 0.135 nM, the IC50 (Homo sapiens, Epithelial cell, 0.5 h, Plate No. 07; Riboflavin 10000 nmol/L; medium b), bench lighting <30 min, read-out: IC50 for docetaxel normalized to medium control of medium with same riboflavin content) was 0.0801 nM and the IC50 (Homo sapiens, Epithelial cell, 0.5 h, Plate No. 08; Riboflavin 499 nmol/L; medium b) phenol red-free RPMI 1640, bench lighting <30 min, daylight 30 min, read-out: IC50 for docetaxel with reference to control with same riboflavin content) was 0.181 nM. For the same molecule, the IC50 (Homo sapiens, Epithelial cell, 0.5 h, Plate No. 08; Riboflavin 499 nmol/L; medium b), bench lighting <30 min, daylight 30 min, read-out: IC50 for docetaxel normalized to medium control of medium with same riboflavin content) was 0.1 nM, the IC50 (Homo sapiens, Epithelial cell, 0.5 h, Plate No. 08; Riboflavin 508 nmol/L; medium b) phenol red-free RPMI 1640, bench lighting <30 min, daylight 30 min, read-out: IC50 for docetaxel with reference to control with same riboflavin content) was 0.186 nM and the IC50 (Homo sapiens, Epithelial cell, 0.5 h, Plate No. 08; Riboflavin 508 nmol/L; medium b), bench lighting <30 min, daylight 30 min, read-out: IC50 for docetaxel normalized to medium control of medium with same riboflavin content) was 0.103 nM. It also gave an IC50 (Homo sapiens, Epithelial cell, 0.5 h, Plate No. 08; Riboflavin 594 nmol/L; medium b) phenol red-free RPMI 1640, bench lighting <30 min, daylight 30 min, read-out: IC50 for docetaxel with reference to control with same riboflavin content) of 0.208 nM, an IC50 (Homo sapiens, Epithelial cell, 0.5 h, Plate No. 08; Riboflavin 594 nmol/L; medium b), bench lighting <30 min, daylight 30 min, read-out: IC50 for docetaxel normalized to medium control of medium with same riboflavin content) of 0.115 nM and an IC50 (Homo sapiens, Epithelial cell, 0.5 h, Plate No. 10; Riboflavin 499 nmol/L; medium c) conventional RPMI 1640 with phenol red, daylight 30 min, read-out: IC50 for docetaxel with reference to control with same riboflavin content) of 0.421 nM. For the same molecule, the IC50 (Homo sapiens, Epithelial cell, 0.5 h, Plate No. 10; Riboflavin 499 nmol/L; medium c), daylight 30 min, read-out: IC50 for docetaxel normalized to medium control of medium with same riboflavin content) was 0.1 nM, the IC50 (Homo sapiens, Epithelial cell, 0.5 h, Plate No. 10; Riboflavin 508 nmol/L; medium c) conventional RPMI 1640 with phenol red, daylight 30 min, read-out: IC50 for docetaxel with reference to control with same riboflavin content) was 0.337 nM and the IC50 (Homo sapiens, Epithelial cell, 0.5 h, Plate No. 10; Riboflavin 508 nmol/L; medium c), daylight 30 min, read-out: IC50 for docetaxel normalized to medium control of medium with same riboflavin content) was 0.0801 nM. It also gave an IC50 (Homo sapiens, Epithelial cell, 0.5 h, Plate No. 10; Riboflavin 594 nmol/L; medium c) conventional RPMI 1640 with phenol red, daylight 30 min, read-out: IC50 for docetaxel with reference to control with same riboflavin content) of 0.264 nM, an IC50 (Homo sapiens, Epithelial cell, 0.5 h, Plate No. 10; Riboflavin 594 nmol/L; medium c), daylight 30 min, read-out: IC50 for docetaxel normalized to medium control of medium with same riboflavin content) of 0.0627 nM and an IC50 (Homo sapiens, Epithelial cell, 0.5 h, Plate No. 10; Riboflavin 1449 nmol/L; medium c) conventional RPMI 1640 with phenol red, daylight 30 min, read-out: IC50 for docetaxel with reference to control with same riboflavin content) of 0.136 nM. It also gave an IC50 (Homo sapiens, Epithelial cell, 0.5 h, Plate No. 10; Riboflavin 1449 nmol/L; medium c), daylight 30 min, read-out: IC50 for docetaxel normalized to medium control of medium with same riboflavin content) of 0.0323 nM and an IC50 (Homo sapiens, Epithelial cell, 0.5 h, Plate No. 11; Riboflavin 499 nmol/L; medium c) conventional RPMI 1640 with phenol red, bench lighting <30 min, read-out: IC50 for docetaxel with reference to control with same riboflavin content) of 0.225 nM.
